Our source for the melting point values is a melting point compilation (Tetko et al.; mined from patent text by program, amines drawn as free bases though some values may be those of a salt).

As usually defined, the melting point is the temperature, or range, at which the solid turns liquid.

Each structure is given as a SMILES string.

`CN1CCCC(Nc2nc3ccccc3[nH]2)CC1` (stereo not drawn): the melting point amounted to 168 °C.
Compound `COCC1=Nc2ccccc2C(=O)C1` displayed a melting point of 184 to 185 °C.
For `CCOC(=O)C1=C(COCCNS(=O)(=O)N2CCN(C)CC2)NC(C)=C(C(=O)OC)C1c1ccccc1Cl` (stereo not drawn), the melting point is 137 to 139 °C.
The value for `COC1(O)C=C(O)C(C(O)C(=O)c2ccccc2)=CC1` (stereo not drawn) was 192 to 193 °C.
Compound `O=C(NCCCCCCOC(=O)N1CCC2(CCCC2)CC1)OC1CCN(C(=O)Oc2ccc(-c3ccccc3)cc2)CC1` yielded a melting point of 110 to 111 °C.
Compound `O=C(NCCN1CCN(c2cc(C(F)(F)F)ccn2)CC1)c1ccc(F)cc1` had a melting point of 159 °C.
Compound `CC(O)(c1ccc(Oc2ccccc2)cc1)c1cccnc1` (stereo not drawn) had a melting point of 130 to 132 °C.
The compound `Clc1cc(-c2ccccc2)ccn1` came in with a melting point of 70 to 72 °C.
Compound `COC=C(C(=O)OC)c1ccccc1CSc1ccc2ccccc2c1` displayed a melting point of 52 to 58 °C.
The compound `CS(=O)(=O)N(Cc1cccnc1)c1ccc(Cl)cc1Cl` yielded a melting point of 180 to 186 °C.
Regarding `ClCc1cccc2nnsc12`, the melting point is 78 to 80 °C.
In the case of `CC1(C)CCC(C)(C)c2c1ccc(CS(=O)(=O)c1ccccc1)c2N`, the melting point lay within 156 to 157 °C.
Take `COC(=O)c1cccc(CBr)c1[N+](=O)[O-]`: the melting point was in the range of 91 to 95 °C.
As for `NS(=O)(=O)c1ccc(-c2cnn(CC3=CCCCC3)c(=O)c2-c2ccc(F)cc2)cc1`, the melting point lay in the range of 192 to 193 °C.
On to `CC(=O)c1ccc(-c2ccc(F)cc2F)c(Cl)c1`, for which the melting point lay in the range of 63 to 64 °C.
The same measure for `COC(=O)c1cc(-c2nn(C)c(SC)c2C)c(F)cc1Cl`: 82 to 83 °C; for `CC(C)(CO)Nc1nc(-c2cccc(Br)c2)cs1`: 116 to 120 °C.
Take `O=C(Nc1nc(-c2ccco2)c(C(=O)C2CCCC2)s1)c1ccncc1`: the melting point was 168 to 181 °C.
For `C1=c2ccccc2=NCO1`, the melting point is 247 to 249 °C.
`O=c1oc(-c2ccccc2)cc(O)c1C(SC1CCCC1)C1CCCC1` (stereo not drawn) gave a melting point of 139 to 142 °C.
As to `CC(C)Nc1cccnc1N1CCN(C(=O)c2ccc(C(=O)N3CCN(C4CCCC4)CC3)cc2)CC1`, the melting point was 181 to 182 °C.
Compound `CC(C)(C)c1ccc(C[C@@H](NC(=O)c2cccc3c2C=CCCC3)[C@@H](O)c2ccc(F)cc2)cc1` (racemic) showed a melting point of 140 to 142 °C.
As to `CCCCOc1ccc(Oc2ccc(C#CC(C)N(O)C(N)=O)o2)cc1` (stereo not drawn), the melting point was 128 to 129 °C.
The compound `Nc1nc(Cl)cc(NCC2(CO)CCC2)n1` came in with a melting point of 192 to 194 °C.
In turn, `Oc1ccc2c3c1OC1C(O)CCC4(F)C(C2)N(CC2CCC2)CCC314` (stereo not drawn) registered a melting point of 236 to 239 °C.
For `CCCCOC(=O)N1C(=O)[C@H](O)[C@@H]1c1ccccc1`, the melting point is 88 to 89 °C.
The value for `CCN(c1nc2c(cc1CN(Cc1cc(C(F)(F)F)cc(C(F)(F)F)c1)c1nnn(C)n1)c(C)nn2C)C1CCCC1` was 43 to 44 °C; that for `O=C(c1cc(C2=CC3CCC(C2)N3)ccn1)N(O)Cc1ccccc1` (stereo not drawn) was 95 to 100 °C.
`CC(C)(C)c1cc(CCc2ccccc2NC(=O)N2CCN(C(=O)c3ccccc3)CC2)cc(C(C)(C)C)c1O`: the melting point was in the range of 207 to 209 °C.
Consider `CS(=O)(=O)c1ccc2nc(N)[nH]c2c1`, for which the melting point was 233 to 238 °C.
Compound `CCN(Cc1cc(Br)ccc1OCc1ccccc1)c1ncc(C(=O)NS(=O)(=O)c2ccccc2)s1` had a melting point of 140 to 145 °C.
The same measure for `Cc1cn(CCC(=O)O)c(=O)[nH]c1=O`: 118 to 121 °C.
Regarding `CC(C)(C)c1cccc(S(=O)(=O)n2c(C(O)c3ccc(C(=O)O)cc3)cc3cc(C(F)(F)F)ccc32)c1` (racemic), the melting point is 110 °C.
`CC(C)(C)c1cc(C(=O)c2cccs2)cc(CN2CCCC2)c1O` gave a melting point of 95 to 97 °C.
The same measure for `COc1cc2c(cc1OC)CCCC(C(=O)N1CCN(C(=O)c3cc(OC)c(OC)c(OC)c3)CC1)=C2`: 164 to 165 °C; for `COc1ccc2c(N)c3ccccc3nc2c1`: 169 to 170 °C; for `CS(=O)(=O)c1ccc(-c2nc3cc(C4CCN(S(=O)(=O)CCCO)CC4)ccc3o2)c(F)c1`: 204 to 206 °C.
For `CCc1ccc2c(c1)N(Cc1ccc(-c3ccccc3C#N)cc1)C(=O)CC2(C)C`, the melting point fell in the range of 171 to 172 °C.
`CCOC(=O)c1nc2ccccc2nc1C` came in with a melting point of 74 to 75 °C.
Compound `CC(C)c1c(C=O)c(-c2ccccc2)c2c3ccccc3cnn12` registered a melting point of 163 to 164 °C.
For `CCCCn1nc(C(F)F)nc1Cc1ccc(-c2ccccc2-c2nnn[nH]2)nc1`, the melting point lay within 172 to 174 °C.
In the case of `O=C(c1ccccc1)c1ccc(CCl)cc1`, the melting point was 109 to 111 °C.
With `Cn1cc(C(=O)NCc2ccc(Cl)cc2)c(=O)c2cccc(C#CCO)c21`, the melting point is 228 to 230 °C.
Compound `CCOc1ccc(-c2cc(C(F)(F)F)n3cnc(-c4ccncc4)c3n2)cc1C(F)(F)F` came in with a melting point of 244 °C.
For `Oc1ccc(CCCc2ccc(O)cc2O)cc1`, the melting point was 92 to 93 °C.
The value for `COn1c(=O)c2ccccc2n(-c2c(Cl)ccc(C)c2Cl)c1=O` was 211 to 213 °C; that for `COc1ccc(-c2cnc(-c3ccccc3)[nH]c2=O)cc1OC` was 230 °C; that for `COCCn1c2cc(OCCCO)c(OC)cc2c2c3c(c(-c4ccccc4Cl)cc21)C(=O)NC3=O` was 251 to 257 °C.
The same measure for `Cc1ccsc1C(=O)c1cccn1N`: 42 to 44 °C; for `Cn1cc(C(=O)c2ccccc2)c2c(Nc3cccc(N)c3)ncnc21`: 170 to 173 °C.
In the case of `CC(C)c1cccc(C(C)C)c1NC(=O)Nc1nnn(CCCCCCCCCCCCO)n1`, the melting point lay in the range of 80 to 90 °C.
`CC(C)(C)OC(=O)NCC(O)CNC(=O)OC(C)(C)C` returned a melting point of 92 °C.
The same measure for `CCCCNc1cc(C(=O)OC)cc(S(N)(=O)=O)c1Oc1ccccc1`: 146 °C.
For `Cc1nsc(OCC(Cl)(Cl)Cl)c1N`, the melting point lay in the range of 58 to 60 °C.
Compound `CCCCSc1cc(C(=O)OC)cc(S(N)(=O)=O)c1Cc1ccccc1` returned a melting point of 118 to 120 °C.
Take `C=Cc1cc(C(=O)OC)c(NC(C)=O)cc1C(F)(F)F`: the melting point lay within 79 to 81 °C.
Take `COc1ccc(S(=O)(=O)N(Cc2nnnn2C)c2ccc(Cl)cc2Cc2c(F)cccc2F)cc1OC`: the melting point was 136 °C.
The compound `COc1ccc(CCN(C)CCCOc2ccc(NC(=O)c3cccc4c(=O)c5ccccc5[nH]c34)cc2)cc1OC` had a melting point of 140 °C.
`O=C1c2ccccc2CS(=O)(=O)N1CCC(c1ccccc1)N1CCOCC1` (stereo not drawn) showed a melting point of 130 °C.
`CS(=O)(=O)c1ccc(-c2cc(=O)n(Cc3ccc(F)cc3)nc2-c2ccc(F)cc2)cc1`: the melting point was in the range of 150 to 151 °C.
As to `Cc1c(F)c(F)cc2c(=O)c(C(=O)O)cn(-c3nc(N)c(F)cc3F)c12`, the melting point was 274 to 277 °C.
The value for `Oc1cccc(-c2nc(Nc3ccc(Cl)cc3)c3ccccc3n2)n1` was > 350 °C; that for `COc1ccc(-c2ccc(N)nn2)cc1OC(C)C` was 184 °C.
